What was measured:
[1] = target: T1, Protein cereblon/Tyrosine-protein kinase ABL1/Breakpoint cluster region protein (Homo sapiens, UniProt P00519+P11274+Q96SW2); assay: Protac activity at CRBN/BCR-ABL in human K562 cells assessed as induction of BCR-ABL degradation at 1 uM incubated for 24 hrs by western blot analysis relative to control; format: cell-based
Target sequence in this assay (P00519 whole entry, looked up, the tested form may be a part): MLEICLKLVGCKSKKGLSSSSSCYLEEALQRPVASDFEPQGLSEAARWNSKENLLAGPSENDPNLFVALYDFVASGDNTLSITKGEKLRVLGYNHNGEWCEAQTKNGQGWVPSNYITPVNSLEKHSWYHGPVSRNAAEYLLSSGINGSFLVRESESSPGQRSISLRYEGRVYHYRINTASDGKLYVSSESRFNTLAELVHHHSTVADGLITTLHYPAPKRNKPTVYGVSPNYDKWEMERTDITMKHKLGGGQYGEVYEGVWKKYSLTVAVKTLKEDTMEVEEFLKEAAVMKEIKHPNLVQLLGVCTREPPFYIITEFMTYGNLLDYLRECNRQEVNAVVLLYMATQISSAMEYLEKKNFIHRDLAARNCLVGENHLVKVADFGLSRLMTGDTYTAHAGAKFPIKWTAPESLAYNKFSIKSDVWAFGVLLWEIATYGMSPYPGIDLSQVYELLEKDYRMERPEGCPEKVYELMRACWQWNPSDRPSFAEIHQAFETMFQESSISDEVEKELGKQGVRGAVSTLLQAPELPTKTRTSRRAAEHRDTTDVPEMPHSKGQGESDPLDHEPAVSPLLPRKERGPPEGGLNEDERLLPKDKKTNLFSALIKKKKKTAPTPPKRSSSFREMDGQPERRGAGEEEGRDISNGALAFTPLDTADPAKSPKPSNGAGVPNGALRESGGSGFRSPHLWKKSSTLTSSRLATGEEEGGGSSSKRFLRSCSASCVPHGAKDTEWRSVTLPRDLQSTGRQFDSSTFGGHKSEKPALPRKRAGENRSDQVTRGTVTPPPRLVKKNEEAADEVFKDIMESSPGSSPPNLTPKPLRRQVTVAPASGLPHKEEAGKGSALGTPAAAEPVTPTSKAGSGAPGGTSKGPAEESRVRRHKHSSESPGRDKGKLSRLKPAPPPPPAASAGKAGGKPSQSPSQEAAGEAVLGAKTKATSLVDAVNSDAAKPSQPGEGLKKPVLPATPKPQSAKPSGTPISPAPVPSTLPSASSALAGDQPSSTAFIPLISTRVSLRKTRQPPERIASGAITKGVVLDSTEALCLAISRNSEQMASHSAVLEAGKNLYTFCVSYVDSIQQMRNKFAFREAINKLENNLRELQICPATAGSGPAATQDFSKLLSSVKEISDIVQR
Target sequence in this assay (P11274 whole entry, looked up, the tested form may be a part): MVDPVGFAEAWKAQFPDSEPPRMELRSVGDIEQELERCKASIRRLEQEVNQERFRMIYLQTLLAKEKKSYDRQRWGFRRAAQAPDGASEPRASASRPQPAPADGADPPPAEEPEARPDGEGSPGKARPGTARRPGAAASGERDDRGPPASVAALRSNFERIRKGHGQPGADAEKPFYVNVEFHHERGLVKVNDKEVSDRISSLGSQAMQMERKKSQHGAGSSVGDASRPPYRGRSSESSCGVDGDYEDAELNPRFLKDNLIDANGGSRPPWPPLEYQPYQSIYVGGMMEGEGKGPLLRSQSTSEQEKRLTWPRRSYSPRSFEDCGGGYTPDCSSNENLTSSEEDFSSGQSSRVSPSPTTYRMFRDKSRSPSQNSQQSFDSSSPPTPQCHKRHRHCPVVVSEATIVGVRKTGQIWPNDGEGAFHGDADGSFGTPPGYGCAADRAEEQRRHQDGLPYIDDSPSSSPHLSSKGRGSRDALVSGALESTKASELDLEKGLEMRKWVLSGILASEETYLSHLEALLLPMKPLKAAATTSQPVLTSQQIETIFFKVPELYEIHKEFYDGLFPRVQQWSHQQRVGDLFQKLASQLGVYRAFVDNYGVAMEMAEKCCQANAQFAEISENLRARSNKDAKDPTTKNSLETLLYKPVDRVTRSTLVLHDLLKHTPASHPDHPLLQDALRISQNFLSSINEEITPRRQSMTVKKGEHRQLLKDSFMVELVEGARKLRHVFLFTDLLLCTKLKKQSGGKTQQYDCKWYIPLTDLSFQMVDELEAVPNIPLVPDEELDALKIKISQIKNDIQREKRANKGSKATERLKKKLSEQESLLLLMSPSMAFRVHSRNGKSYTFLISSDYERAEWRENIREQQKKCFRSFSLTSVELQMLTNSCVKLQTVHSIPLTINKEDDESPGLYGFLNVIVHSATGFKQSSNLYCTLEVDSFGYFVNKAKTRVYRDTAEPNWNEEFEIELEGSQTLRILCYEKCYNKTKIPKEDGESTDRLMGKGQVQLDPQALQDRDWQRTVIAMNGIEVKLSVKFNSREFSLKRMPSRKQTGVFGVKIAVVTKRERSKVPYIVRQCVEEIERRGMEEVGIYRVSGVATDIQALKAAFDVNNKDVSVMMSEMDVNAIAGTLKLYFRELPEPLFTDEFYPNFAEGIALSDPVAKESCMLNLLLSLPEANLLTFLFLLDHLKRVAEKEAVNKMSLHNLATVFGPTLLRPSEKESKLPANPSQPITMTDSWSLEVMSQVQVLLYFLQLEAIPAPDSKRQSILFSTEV
Target sequence in this assay (Q96SW2 whole entry, looked up, the tested form may be a part): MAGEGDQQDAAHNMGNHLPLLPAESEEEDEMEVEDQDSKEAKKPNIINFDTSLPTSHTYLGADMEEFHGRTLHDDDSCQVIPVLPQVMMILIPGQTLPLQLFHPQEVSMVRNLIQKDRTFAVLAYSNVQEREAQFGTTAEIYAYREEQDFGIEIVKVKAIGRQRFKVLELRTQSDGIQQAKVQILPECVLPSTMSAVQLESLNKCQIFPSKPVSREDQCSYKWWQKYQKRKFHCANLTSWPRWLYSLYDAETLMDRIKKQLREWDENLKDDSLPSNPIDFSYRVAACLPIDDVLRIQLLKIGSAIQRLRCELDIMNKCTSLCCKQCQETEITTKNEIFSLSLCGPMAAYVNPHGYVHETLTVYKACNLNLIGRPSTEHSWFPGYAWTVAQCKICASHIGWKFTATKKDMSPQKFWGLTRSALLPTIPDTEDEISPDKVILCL

[2] = target: T1, Protein cereblon/Tyrosine-protein kinase ABL1/Breakpoint cluster region protein; assay: Protac binding affinity at CRBN/BCR-ABL (unknown origin) assessed as binding to phosphorylated c-ABL kinase domain by Kinomescan assay; format: protein assay
Target sequence in this assay (P00519 whole entry, the tested form may be a part): as the sequence (P00519 whole entry, looked up, the tested form may be a part) above
Target sequence in this assay (P11274 whole entry, the tested form may be a part): as the sequence (P11274 whole entry, looked up, the tested form may be a part) above
Target sequence in this assay (Q96SW2 whole entry, the tested form may be a part): as the sequence (Q96SW2 whole entry, looked up, the tested form may be a part) above

[3] = target: T1, Protein cereblon/Tyrosine-protein kinase ABL1/Breakpoint cluster region protein; assay: Protac activity at CRBN/BCR-ABL in human K562 cells assessed as induction of BCR-ABL degradation at 2.5 uM incubated for 24 hrs by western blot analysis relative to control; format: cell-based
Target sequence in this assay (P00519 whole entry, looked up, the tested form may be a part): as the sequence (P00519 whole entry, looked up, the tested form may be a part) above
Target sequence in this assay (P11274 whole entry, looked up, the tested form may be a part): as the sequence (P11274 whole entry, looked up, the tested form may be a part) above
Target sequence in this assay (Q96SW2 whole entry, looked up, the tested form may be a part): as the sequence (Q96SW2 whole entry, looked up, the tested form may be a part) above

[4] = target: T1, Protein cereblon/Tyrosine-protein kinase ABL1/Breakpoint cluster region protein; assay: Protac binding affinity at CRBN/BCR-ABL (unknown origin) assessed as binding to non phosphorylated c-ABL kinase domain by Kinomescan assay; format: protein assay
Target sequence in this assay (P00519 whole entry, the tested form may be a part): as the sequence (P00519 whole entry, looked up, the tested form may be a part) above
Target sequence in this assay (P11274 whole entry, the tested form may be a part): as the sequence (P11274 whole entry, looked up, the tested form may be a part) above
Target sequence in this assay (Q96SW2 whole entry, the tested form may be a part): as the sequence (Q96SW2 whole entry, looked up, the tested form may be a part) above

[5] = target: T2, von Hippel-Lindau disease tumor suppressor/Tyrosine-protein kinase ABL1/Breakpoint cluster region protein (Homo sapiens, UniProt P00519+P11274+P40337); assay: Protac binding affinity at VHL/BCR-ABL (unknown origin) assessed as binding to non phosphorylated c-ABL kinase domain by Kinomescan assay; format: protein assay
T2 sequence (P00519 whole entry, the tested form may be a part): as the sequence (P00519 whole entry, looked up, the tested form may be a part) above
T2 sequence (P11274 whole entry, the tested form may be a part): as the sequence (P11274 whole entry, looked up, the tested form may be a part) above
T2 sequence (P40337 whole entry, the tested form may be a part): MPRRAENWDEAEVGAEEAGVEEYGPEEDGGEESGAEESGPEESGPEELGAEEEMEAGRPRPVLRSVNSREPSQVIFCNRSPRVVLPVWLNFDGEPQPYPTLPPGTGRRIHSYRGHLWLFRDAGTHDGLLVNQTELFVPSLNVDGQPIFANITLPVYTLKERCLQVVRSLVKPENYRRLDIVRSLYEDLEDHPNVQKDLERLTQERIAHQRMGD

[6] = target: T2, von Hippel-Lindau disease tumor suppressor/Tyrosine-protein kinase ABL1/Breakpoint cluster region protein; assay: Protac binding affinity at VHL/BCR-ABL (unknown origin) assessed as binding to phosphorylated c-ABL kinase domain by Kinomescan assay; format: protein assay

| Activity [1] [%] | Kd [2] [nM] | Activity [3] [%] | Kd [4] [nM] | Kd [5] [nM] | Kd [6] [nM] | Compound |
| --- | --- | --- | --- | --- | --- | --- |
| > 60 | 0.55 | > 80 | 0.91 | – | – | COc1cc(Nc2c(C#N)cnc3cc(OCCCN4CCN(CCCCCCOCCOCCOCCCCCC(=O)Nc5cccc6c5C(=O)N(C5CCC(=O)NC5=O)C6=O)CC4)c(OC)cc23)c(Cl)cc1Cl (stereo not drawn) |
| – | – | – | – | 0.36 | 0.21 | Cc1nc(Nc2ncc(C(=O)Nc3c(C)cccc3Cl)s2)cc(N2CCN(CCCCCCOCCOCC(=O)N[C@H](C(=O)N3C[C@H](O)C[C@H]3C(=O)NCc3ccc(-c4scnc4C)cc3)C(C)(C)C)CC2)n1 |
| > 60 | – | > 80 | – | – | – | Cc1nc(Nc2ncc(C(=O)Nc3c(C)cccc3Cl)s2)cc(N2CCN(CCCCCCOCCOCCOCCCCCC(=O)Nc3cccc4c3C(=O)N(C3CCC(=O)NC3=O)C4=O)CC2)n1 (stereo not drawn) |
| > 60 | 0.11 | > 80 | 0.28 | – | – | COc1cc(Nc2c(C#N)cnc3cc(OCCCN4CCN(CCCCCCOCCOCC(=O)Nc5cccc6c5C(=O)N(C5CCC(=O)NC5=O)C6=O)CC4)c(OC)cc23)c(Cl)cc1Cl (stereo not drawn) |
| > 60 | 0.13 | > 80 | 0.38 | – | – | COc1cc(Nc2c(C#N)cnc3cc(OCCCN4CCN(CCCCCCOCCOCCOCCOCCOCCOCC(=O)Nc5cccc6c5C(=O)N(C5CCC(=O)NC5=O)C6=O)CC4)c(OC)cc23)c(Cl)cc1Cl (stereo not drawn) |
| – | – | – | – | 0.57 | 0.3 | COc1cc(Nc2c(C#N)cnc3cc(OCCCN4CCN(CCCCCCOCCOCCOCCOCCOCCOCC(=O)N[C@H](C(=O)N5C[C@H](O)C[C@H]5C(=O)NCc5ccc(-c6scnc6C)cc5)C(C)(C)C)CC4)c(OC)cc23)c(Cl)cc1Cl |
| – | – | – | – | 1.3 | 0.67 | COc1cc(Nc2c(C#N)cnc3cc(OCCCN4CCN(CCCCCCOCCOCC(=O)N[C@H](C(=O)N5C[C@H](O)C[C@H]5C(=O)NCc5ccc(-c6scnc6C)cc5)C(C)(C)C)CC4)c(OC)cc23)c(Cl)cc1Cl |
| > 60 | 0.23 | > 80 | 0.26 | – | – | Cc1nc(Nc2ncc(C(=O)Nc3c(C)cccc3Cl)s2)cc(N2CCN(CCCCCCOCCOCCOCCOCCOCCOCC(=O)Nc3cccc4c3C(=O)N(C3CCC(=O)NC3=O)C4=O)CC2)n1 (stereo not drawn) |
| – | – | – | – | 0.92 | 0.47 | Cc1nc(Nc2ncc(C(=O)Nc3c(C)cccc3Cl)s2)cc(N2CCN(CCCCCCOCCOCCOCCCCCC(=O)N[C@H](C(=O)N3C[C@H](O)C[C@H]3C(=O)NCc3ccc(-c4scnc4C)cc3)C(C)(C)C)CC2)n1 |
| – | – | – | – | 0.28 | 0.088 | Cc1nc(Nc2ncc(C(=O)Nc3c(C)cccc3Cl)s2)cc(N2CCN(CCCCCCOCCOCCOCCOCCOCCOCC(=O)N[C@H](C(=O)N3C[C@H](O)C[C@H]3C(=O)NCc3ccc(-c4scnc4C)cc3)C(C)(C)C)CC2)n1 |

Reference: ChEMBL document CHEMBL4665907, “Breakthrough in Degradation of BCR-ABL Fusion Protein for the Treatment of Cancer” (ACS Med Chem Lett, 2020)
